US9925198B2, “Pharmaceutical composition for preventing or treating hearing loss, comprising carbenoxolone or its pharmaceutically acceptable salts as effective compound” (AJOU UNIVERSITY INDUSTRY-ACADEMIC COOPERATION FOUNDATION, priority 2015, dated 2018)
Several values for one entry are separate records, joined by “and”; a condition that tells them apart may be missing. Equal entries are not always repeated. Entries after “also recorded” stand apart in the source; their conditions may differ. Where two headings read alike, the source gives them in different places.

How the values were obtained:
[1] = system: ototoxic hearing loss induced by cisplatin; test: Auditory brainstem response (ABR) test, hearing threshold in rats with cisplatin-induced ototoxic hearing loss; type: in vivo, SD-rat; conditions: for hearing threshold (ABR) at 16 kHz / hearing threshold (ABR) at 32 kHz: measured 5 days after; for hearing threshold (ABR) at 16 kHz: tone burst 16 kHz; for hearing threshold (ABR) at 32 kHz: tone burst 32 kHz
Method: Auditory acuity was evaluated by performing an auditory brainstem response (ABR) test on the SD-rat before and after the drug administration. The ABR test was determines the minimum stimuli intensity (dB) that evokes the waveform of wave V by providing tone burst of 16 kHz and 32 kHz using a TDT ABR device as a hearing threshold, and the auditory acuities were measured 1 day before the drug administration and 5 days after the drug administration.

[2] = system: auditory sensory hair cell stereocilia; test: Phalloidin staining of auditory sensory hair cell stereocilia in cochlea; type: in vivo, SD-rat; conditions: basal turn (32 kHz) and middle turn (16 kHz)
Method: Phalloidin staining was performed on auditory sensory hair cell stereocilia markers of the SD-rats administered with drugs by using the method described above to confirm degrees of loss or damage on auditory cells at sites of the basal turn (32 kHz) and the middle turn (16 kHz).

[3] = system: auditory outer hair cells; test: Scanning electron microscope (SEM) analysis of cochlea, auditory outer hair cell damage; type: in vivo, SD-rat; conditions: basal turn (32 kHz) and middle turn (16 kHz)
Description: Also, degrees of loss and damage on auditory cells at the basal turn (32 kHz) and the middle turn (16 kHz) in cochlea were confirmed by using a scanning electron microscope (SEM) to analyze the shape of cochlea.

cisplatin-takers = conditions: cited from earlier work
[4] = cisplatin 16 mg/kg i.p. once + carbenoxolone sodium 50 mg/kg daily 2 days before and after cisplatin
[5] = cisplatin 16 mg/kg + carbenoxolone sodium 50 mg/kg, vs cisplatin alone
[6] = cisplatin alone 16 mg/kg, compared to control group
[7] = cisplatin 16 mg/kg i.p. once + 18α-GA 100 mg/kg daily 2 days before and after cisplatin
[8] = cisplatin 16 mg/kg + 18α-GA 100 mg/kg

Question: Which results are given for `CC1(C)[C@@H](OC(=O)CCC(=O)O)CC[C@]2(C)[C@H]3C(=O)C=C4[C@@H]5C[C@@](C)(C(=O)O)CC[C@]5(C)CC[C@@]4(C)[C@]3(C)CC[C@@H]12` [carbenoxolone sodium]?
Answer: hearing threshold (ABR) at 16 kHz [1, 4]: 26.3±7.5 dB; hearing threshold (ABR) at 32 kHz [1, 4]: 28.8±4.8 dB; preservation of outer hair cells (phalloidin staining, FIG. 3) [2, 5]: significantly preserved; preservation of outer hair cells (SEM, FIG. 4) [3, 5]: significantly preserved

Question: For `N.N.[Cl][Pt][Cl]` [cisplatin], which “stereocilia damage (phalloidin staining, FIG. 3)” value [2, 6] is on record?
Answer: Its value is “a number of stereocilia damages were observed”.

Question: What about the “auditory impairment occurrence frequency” value (cisplatin-takers; children) of the same molecule?
Answer: Its value is “about 50%”.

Question: What about the “auditory impairment occurrence frequency” value (cisplatin-takers; cisplatin-takers) of the same molecule?
Answer: The value was “about 30%”.

Question: What about the “auditory outer hair cell damage (SEM, FIG. 4)” value [3, 6] of the same molecule?
Answer: The value was “damages on auditory outer hair cells were observed in numbers; also recorded: a number of auditory outer hair cell damages were observed”.

Question: For `CC1(C)[C@@H](O)CC[C@]2(C)[C@H]3C(=O)C=C4[C@H]5C[C@@](C)(C(=O)O)CC[C@]5(C)CC[C@@]4(C)[C@]3(C)CC[C@@H]12` [18α-GA, 18α-glycyrrhetinic acid], which “hearing thresholds compared with the cisplatin-treated group” value ([1]; cisplatin 16 mg/kg + 18α-GA 100 mg/kg, 16 kHz and 32 kHz) is on record?
Answer: The value was “no significant difference; also recorded: did not show significant difference”.

Question: What about the “hearing threshold (ABR) at 16 kHz” value [1, 7] of the same molecule?
Answer: Its value is 49.3±4.8 dB and 46.2±4.1 dB.

Question: What about the “hearing threshold (ABR) at 32 kHz” value [1, 7] of the same molecule?
Answer: The value was 46.2±4.1 dB.

Question: What about the “damage prevention effect (phalloidin staining, FIG. 3)” value [2, 8] of the same molecule?
Answer: Its value is “not exhibited”.

Question: What about the “damage prevention effect (SEM, FIG. 4)” value [3, 8] of the same molecule?
Answer: The value was “not confirmed”.
